Experimental data published in ChEMBL document CHEMBL1201862, “PubChem BioAssay data set” (2004).
The source made the active and inactive calls.

Experiments:
[1] = Late stage assay provider results from the probe development effort to identify selective inhibitors of heat shock protein 90 (HSP90): Absorbance-based cell proliferation assay in SKBR3 cells.; type: functional; settings: SK-BR-3
[2] = Late stage assay provider results from the probe development effort to identify selective inhibitors of heat shock protein 90 (HSP90): Absorbance-based cell proliferation assay in MCF7 cells.; type: functional
[3] = cells; type: functional, cell-based
[4] = target: T1, Nuclear receptor subfamily 0 group B member 1 (Homo sapiens, UniProt P51843); type: functional, cell-based;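 further: HEK293T cells transfected with SF-1 and DAX-1 plus StAR promoter luciferase reporter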
T1 sequence (P51843 whole entry): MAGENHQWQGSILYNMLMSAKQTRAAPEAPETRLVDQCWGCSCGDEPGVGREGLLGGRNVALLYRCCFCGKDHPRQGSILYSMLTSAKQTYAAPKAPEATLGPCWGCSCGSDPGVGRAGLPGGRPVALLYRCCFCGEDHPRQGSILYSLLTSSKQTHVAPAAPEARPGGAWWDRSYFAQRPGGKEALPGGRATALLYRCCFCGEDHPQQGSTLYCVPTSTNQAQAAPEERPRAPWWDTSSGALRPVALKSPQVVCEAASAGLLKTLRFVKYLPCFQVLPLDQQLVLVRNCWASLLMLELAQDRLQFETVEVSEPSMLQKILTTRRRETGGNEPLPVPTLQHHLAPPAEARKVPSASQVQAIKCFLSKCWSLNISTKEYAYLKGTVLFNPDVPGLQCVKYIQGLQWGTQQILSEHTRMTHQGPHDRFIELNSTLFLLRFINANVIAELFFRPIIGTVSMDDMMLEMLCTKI

[5] = target: T2, Caspase-6 (Homo sapiens, UniProt P55212); test: human caspase-6 inhibitors, dose response, biochemical, VEID-R110 fluorescence, cherry-pick (AID 720632)
T2 sequence (P55212 whole entry): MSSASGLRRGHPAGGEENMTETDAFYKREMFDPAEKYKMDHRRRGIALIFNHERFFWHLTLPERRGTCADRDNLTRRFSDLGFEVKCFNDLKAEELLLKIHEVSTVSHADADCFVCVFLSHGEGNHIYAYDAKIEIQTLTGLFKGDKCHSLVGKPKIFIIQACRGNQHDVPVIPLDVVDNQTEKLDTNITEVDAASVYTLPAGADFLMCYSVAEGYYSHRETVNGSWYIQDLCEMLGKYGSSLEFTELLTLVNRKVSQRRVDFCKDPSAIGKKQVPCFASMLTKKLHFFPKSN

[6] = target: Caspase-7 (Homo sapiens, UniProt P55210); test: human caspase-7 inhibitors, dose response, selectivity assay for caspase-6 inhibitor project, biochemical, DEVD-R110 fluorescence, cherry-pick (AID 743295)
[7] = target: Galanin receptor type 3 (Homo sapiens, UniProt O60755); test: Fluorescence-based cell-based primary high throughput dose response assay to identify antagonists of the Galanin Receptor 3 (GalR3).; type: functional
[8] = cells; type: functional, cell-based; settings: HEK-CNG
[9] = Luminescence Cell-Based Dose Response HTS to Identify Inhibitors of 5'UTR Stem-Loop Driven Prion Protein mRNA Translation in H4 Neuroglioblastoma Cells. [Related pubchem assays: 1827 (Project Summary), 1813 (Primary HTS)]; type: functional
[10] = inhibitors of SNCA 5'UTR-driven reporter translation, confirmation, H4 neuroglioma cells, luminescence (AID 1988); type: functional, cell-based
[11] = target: Luciferin 4-monooxygenase (Photinus pyralis, UniProt P08659); test: firefly luciferase enzyme inhibitors, dose response, biochemical, luminescence (AID 1891)
[12] = Luminescence Cell-Based Dose Confirmation HTS to Identify Inhibitors of Platelet Dense Granule Release. [Related pubchem assays: 1663 (Primary HTS), 1678 (Summary of Project)]; type: functional
[13] = target: T3, Protein skinhead-1 (Caenorhabditis elegans, UniProt P34707); type: functional
T3 sequence (P34707 whole entry): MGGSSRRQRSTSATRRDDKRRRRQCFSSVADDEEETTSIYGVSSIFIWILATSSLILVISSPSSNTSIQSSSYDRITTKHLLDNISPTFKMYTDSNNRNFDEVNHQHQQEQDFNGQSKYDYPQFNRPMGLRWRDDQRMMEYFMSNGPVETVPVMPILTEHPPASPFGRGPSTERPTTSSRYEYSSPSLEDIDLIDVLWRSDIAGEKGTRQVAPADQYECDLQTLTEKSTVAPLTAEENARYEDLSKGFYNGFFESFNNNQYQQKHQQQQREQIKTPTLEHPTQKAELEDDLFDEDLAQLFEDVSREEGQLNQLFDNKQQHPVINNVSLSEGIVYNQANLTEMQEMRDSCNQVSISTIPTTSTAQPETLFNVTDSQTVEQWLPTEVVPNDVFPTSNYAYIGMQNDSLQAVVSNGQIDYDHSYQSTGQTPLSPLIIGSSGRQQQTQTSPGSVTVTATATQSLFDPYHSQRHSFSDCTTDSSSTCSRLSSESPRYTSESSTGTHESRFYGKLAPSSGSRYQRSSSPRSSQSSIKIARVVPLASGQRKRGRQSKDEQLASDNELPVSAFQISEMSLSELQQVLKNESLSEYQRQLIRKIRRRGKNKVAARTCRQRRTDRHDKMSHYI

[14] = target: Major prion protein (Homo sapiens, UniProt P04156); type: functional, cell-based
[15] = cells
[16] = cells; type: functional, cell-based; remark: listed apart in the source
[17] = inhibitors of intracellular T. cruzi replication, confirmation, NIH3T3 host cells, beta-gal luminescence (AID 2044); type: functional, cell-based;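 further: intracellular parasites grown in NIH/3T3 mouse fibroblasts as host cells; luminescent beta-galactosidase reporter signal from transgenic T. cruzi replicating inside host cells; inhibitors lower the luminescence signal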
[18] = cells; type: functional, cell-based; remark: listed apart in the source
[19] = cytotoxicity toward NIH3T3 fibroblasts, dose response, counter-screen, cell-based, ATP luminescence, mouse fibroblasts (AID 2010); type: functional;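 further: cells exposed to compound for about 90 hours before reading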
[20] = target: T4, Short transient receptor potential channel 4 (Mus musculus, UniProt Q9QUQ5); test: mouse TRPC4 channel inhibitors, dose response, cell-based, HEK293 TRPC4/mu-opioid, Fluo-4 calcium (AID 434942); type: functional;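 further: potency of inhibitors blocking the TRPC4 calcium response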
T4 sequence (Q9QUQ5 whole entry): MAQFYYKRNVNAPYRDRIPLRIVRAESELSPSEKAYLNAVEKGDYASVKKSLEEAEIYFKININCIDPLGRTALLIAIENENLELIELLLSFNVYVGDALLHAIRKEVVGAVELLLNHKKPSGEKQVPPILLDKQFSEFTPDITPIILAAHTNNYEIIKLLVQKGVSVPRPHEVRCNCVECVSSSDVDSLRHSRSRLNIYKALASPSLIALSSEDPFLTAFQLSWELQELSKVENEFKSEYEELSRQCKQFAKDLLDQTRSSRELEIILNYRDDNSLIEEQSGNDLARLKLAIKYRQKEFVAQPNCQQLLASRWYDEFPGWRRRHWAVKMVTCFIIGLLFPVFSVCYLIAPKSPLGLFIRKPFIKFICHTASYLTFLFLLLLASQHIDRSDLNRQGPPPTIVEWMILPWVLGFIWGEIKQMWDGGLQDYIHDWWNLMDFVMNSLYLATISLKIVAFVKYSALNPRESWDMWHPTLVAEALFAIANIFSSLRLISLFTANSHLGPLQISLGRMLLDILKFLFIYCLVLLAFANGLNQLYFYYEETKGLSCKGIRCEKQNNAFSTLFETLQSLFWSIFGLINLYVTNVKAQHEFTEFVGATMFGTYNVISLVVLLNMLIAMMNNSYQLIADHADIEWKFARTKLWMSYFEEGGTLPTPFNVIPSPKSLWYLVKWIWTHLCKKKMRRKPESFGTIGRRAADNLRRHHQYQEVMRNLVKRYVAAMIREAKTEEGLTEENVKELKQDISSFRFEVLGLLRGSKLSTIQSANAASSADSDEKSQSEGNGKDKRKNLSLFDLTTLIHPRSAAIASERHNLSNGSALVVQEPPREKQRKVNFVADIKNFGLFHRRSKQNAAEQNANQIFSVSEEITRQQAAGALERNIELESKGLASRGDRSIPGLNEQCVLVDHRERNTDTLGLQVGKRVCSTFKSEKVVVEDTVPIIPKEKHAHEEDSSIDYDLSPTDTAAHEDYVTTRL

[21] = test system: INS1; test: beta cell apoptosis inhibitors, cytokine rescue, dose response, luminescence, retest (AID 449756); type: functional, cell-based; settings: Rattus norvegicus, INS1;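 further: cell death triggered by IL-1 beta plus TNF-alpha plus IFN-gamma mixture; protective hits raise ATP signal compared with cytokine alone wells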
[22] = DNA binding of candidate compounds, dose response, artefact control for RAD54 inhibitor project, biochemical, fluorescence polarization, cherry-pick (AID 651673); type: functional
[23] = target: T5, DNA repair and recombination protein RAD54-like (Homo sapiens, UniProt Q92698); test: inhibitors of human RAD54 branch migration, confirmation, biochemical, fluorescence, cherry-picked samples, dose series (AID 651657); type: functional
T5 sequence (Q92698 whole entry): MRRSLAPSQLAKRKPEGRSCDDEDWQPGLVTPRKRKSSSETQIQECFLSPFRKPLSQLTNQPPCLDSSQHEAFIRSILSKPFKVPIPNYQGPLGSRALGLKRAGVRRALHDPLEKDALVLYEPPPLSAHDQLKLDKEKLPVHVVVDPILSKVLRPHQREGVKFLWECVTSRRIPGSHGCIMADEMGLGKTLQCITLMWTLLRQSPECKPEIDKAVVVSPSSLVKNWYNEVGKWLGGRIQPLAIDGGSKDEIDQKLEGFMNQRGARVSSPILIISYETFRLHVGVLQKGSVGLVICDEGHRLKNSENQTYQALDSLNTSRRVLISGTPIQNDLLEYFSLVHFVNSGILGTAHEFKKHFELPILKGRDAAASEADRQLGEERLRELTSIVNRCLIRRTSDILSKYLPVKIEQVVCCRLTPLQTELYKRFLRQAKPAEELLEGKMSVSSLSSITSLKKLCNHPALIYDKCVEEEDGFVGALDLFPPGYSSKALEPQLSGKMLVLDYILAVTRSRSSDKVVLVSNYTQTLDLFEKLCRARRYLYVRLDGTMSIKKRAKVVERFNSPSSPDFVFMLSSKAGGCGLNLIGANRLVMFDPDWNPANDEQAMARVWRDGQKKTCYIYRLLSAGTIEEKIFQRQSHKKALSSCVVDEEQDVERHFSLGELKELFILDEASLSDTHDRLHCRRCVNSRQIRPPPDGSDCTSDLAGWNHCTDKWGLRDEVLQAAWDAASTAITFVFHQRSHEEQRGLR

[24] = target: SWI/SNF-related matrix-associated actin-dependent regulator of chromatin subfamily A member 2 (Homo sapiens, UniProt P51531); test: Luminescence-based cell-based high throughput dose response assay to identify activators of the function of SWI/SNF related, matrix associated, actin dependent regulator of chromatin, subfamily a, member 2 (SMARCA2, BRM).; type: functional
[25] = Counterscreen for activators of the function of SWI/SNF related, matrix associated, actin dependent regulator of chromatin, subfamily a, member 2 (SMARCA2, BRM): Luminescence-based cell-based high throughput dose response assay to identify non-selective compounds using the VP16 reporter assay.; type: functional
[26] = target: T6, DNA repair protein RAD52 homolog (Homo sapiens, UniProt P43351); type: functional, biochemical
T6 sequence (P43351 whole entry): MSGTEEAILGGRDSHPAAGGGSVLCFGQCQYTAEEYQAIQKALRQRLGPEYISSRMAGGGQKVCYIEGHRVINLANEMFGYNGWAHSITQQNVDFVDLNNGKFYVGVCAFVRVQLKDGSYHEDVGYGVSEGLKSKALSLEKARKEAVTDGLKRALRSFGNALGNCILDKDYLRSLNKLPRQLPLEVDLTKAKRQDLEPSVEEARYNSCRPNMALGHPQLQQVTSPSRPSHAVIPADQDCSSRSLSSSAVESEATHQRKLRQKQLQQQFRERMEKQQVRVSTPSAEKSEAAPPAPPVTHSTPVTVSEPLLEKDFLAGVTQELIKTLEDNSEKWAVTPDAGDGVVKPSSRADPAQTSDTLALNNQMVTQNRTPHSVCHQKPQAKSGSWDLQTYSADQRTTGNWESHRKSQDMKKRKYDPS

[27] = test system: HEK293; test: cells; settings: Homo sapiens
[28] = test system: HEK293; test: cells; settings: Homo sapiens; remark: listed apart in the source

SMILES: O=C(NCc1ccco1)c1coc(=O)c(Br)c1
- IC50 [1]: 27.8 µM (inactive)
- IC50 [2]: 4.8 µM (active)

SMILES: O=C(/C=C\Nc1ccccc1Br)c1ccc2c(c1)OCO2
- IC50 [3]: > 67.5 µM (inactive)
- IC50 [4]: > 0.0926 µM (active)

SMILES: O=C(Nc1ccc(S(=O)(=O)Nc2cnc3ccccc3n2)cc1)c1ccc(Cl)c([N+](=O)[O-])c1
- AC50 [5]: 0.905 µM (active)
- AC50 [6]: > 70 µM (inactive)

SMILES: N#Cc1cc2cc(OCCc3ccc(F)cc3)ccc2oc1=O
- IC50 [1]: 16.9 µM (inactive)
- IC50 [2]: 96.5 µM (inactive)

SMILES: CCOC(=O)c1c(O)nc(C)c(Cl)c1O
- IC50 [7]: > 29.9 µM (inactive)
- EC50 [8]: > 29.9 µM (inactive)

SMILES: Cc1ccc(N/C=C/C(=O)c2cccs2)cc1
- EC50 [9]: 9.4 µM (active)
- EC50 [10]: 9.77 µM (active)
- EC50 [11]: 1.17 µM (active)
- EC50 [12]: 6.06 µM (active)
- IC50 [13]: 39 µM (active)
- IC50 [3]: > 67.5 µM (inactive)
- IC50 [4]: > 0.278 µM (active)

SMILES: COC(=O)CSc1nc(-c2ccccc2)nc2ccccc12
- IC50 [14]: 1.31 µM (active)
- IC50 [15]: > 138 µM (inactive)

SMILES: OCCCNc1c2ccccc2nc2ccccc12
- EC50 [16]: > 350 µM (not active)
- EC50 [17]: 0.266 µM (active)
- EC50 [18]: > 350 µM (not active)
- EC50 [19]: 7.34 µM (active)
- EC50 [20]: 6.68 µM (active)
- AC50 [21]: 2.44 µM (active)
- AC50 [22]: 55.2 µM (active)
- AC50 [23]: 3.37 µM (active)
- EC50 [24]: > 3.38 µM (active)
- EC50 [25]: > 91.1 µM (inactive)
- AC50 [26]: 3.08 µM (active)
- EC50 [27]: > 2.21 µM (active)
- EC50 [28]: > 59.7 µM (inactive)

SMILES: CC(=O)c1ccc(CCCCCCCCCC(=O)O)s1
- IC50 [14]: 5.71 µM (active)
- IC50 [15]: > 138 µM (inactive)
